The record followed here is ChEMBL document CHEMBL1201862, “PubChem BioAssay data set” (2004).

Calls of active or inactive are those of the source.

The test system of assay [1] is Vero. Description: host cell cytotoxicity of antiviral hits, dose response, cytotoxicity control for West Nile virus antiviral project, secondary assay (AID 1650). It counts as functional. As to conditions: Chlorocebus sabaeus.
A short description of assay [2]: inhibitors of intracellular T. cruzi replication, confirmation, NIH3T3 host cells, beta-gal luminescence (AID 2044).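 Also: intracellular parasites grown in NIH/3T3 mouse fibroblasts as host cells; luminescent beta-galactosidase reporter signal from transgenic T. cruzi replicating inside host cells; inhibitors lower the luminescence signal.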 It counts as functional, cell-based.
Assay [3] is described as follows: growth suppression of PTEN-null colon cells, dose response, cell-based, HCT116 PTEN knockout (AID 1047).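 Also: HCT116 colon tumor cells with PTEN knocked out; cells exposed to compound for 60 hours before readout; potency for loss of cell viability measured by luminescence.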 It is filed as functional.
The nature of assay [4]: cytotoxicity toward NIH3T3 fibroblasts, dose response, counter-screen, cell-based, ATP luminescence, mouse fibroblasts (AID 2010).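 Also: cells exposed to compound for about 90 hours before reading.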 It is filed as functional. (In general: Counterscreens check selectivity or assay interference.)
Assay [5] is described as follows: growth suppression of beta-catenin-knockout colon cells, dose response, cell-based, HCT116, human colon tumor (AID 1045).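 Also: HCT116 colon tumor cells with beta catenin knocked out; cells exposed to compound for 60 hours.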 It counts as functional.
A further assay concerns HEK293. The assay is described as follows: inhibitors of LMP1-driven NF-kB reporter, dose response, cell-based, HEK293, luciferase, cherry-pick (AID 588343). It is filed as functional. To be noted: Homo sapiens.
In a further assay the test system is INS1. Description: beta cell apoptosis inhibitors, cytokine rescue, dose response, luminescence, retest (AID 449756).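 Also: cell death triggered by IL-1 beta plus TNF-alpha plus IFN-gamma mixture; protective hits raise ATP signal compared with cytokine alone wells.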 It is filed as functional, cell-based. As to conditions: Rattus norvegicus.
For a further assay, the target named is Paired box protein Pax-8 (Homo sapiens, UniProt Q06710). Description: inhibitors of PAX8-driven TPO luciferase reporter, dose response, RMG-I cells, cherry-pick (AID 687027).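 Also: luciferase reporter driven by Pax8 target thyroperoxidase promoter measured by SteadyGlo luminescence.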 It counts as functional, cell-based. (In a reporter assay the amount or activity of a reporter protein is the signal.)
Sequence of Paired box protein Pax-8 (Q06710 whole entry): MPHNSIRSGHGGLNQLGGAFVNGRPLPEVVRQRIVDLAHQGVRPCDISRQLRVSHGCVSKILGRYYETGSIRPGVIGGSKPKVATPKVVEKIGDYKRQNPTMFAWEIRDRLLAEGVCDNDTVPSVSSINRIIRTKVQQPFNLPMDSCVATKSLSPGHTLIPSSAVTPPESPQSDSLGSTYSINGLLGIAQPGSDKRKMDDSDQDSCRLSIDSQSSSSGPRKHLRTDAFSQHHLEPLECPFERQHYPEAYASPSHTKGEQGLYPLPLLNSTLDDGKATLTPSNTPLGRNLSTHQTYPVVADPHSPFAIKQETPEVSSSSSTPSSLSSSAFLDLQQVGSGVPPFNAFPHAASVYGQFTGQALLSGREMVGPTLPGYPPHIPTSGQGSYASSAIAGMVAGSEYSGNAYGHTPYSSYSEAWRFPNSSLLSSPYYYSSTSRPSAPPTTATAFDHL
Assay [6] can be described thus: non-specific cell cytotoxicity, dose response, cytotoxicity control for PAX8 inhibitor project, plate reader, dry powder samples (AID 743021). It is filed as functional, cell-based.
In another assay the target is T1, Aminopeptidase N (Plasmodium falciparum FcB1/Columbia, UniProt O96935).
T1 sequence (O96935 whole entry): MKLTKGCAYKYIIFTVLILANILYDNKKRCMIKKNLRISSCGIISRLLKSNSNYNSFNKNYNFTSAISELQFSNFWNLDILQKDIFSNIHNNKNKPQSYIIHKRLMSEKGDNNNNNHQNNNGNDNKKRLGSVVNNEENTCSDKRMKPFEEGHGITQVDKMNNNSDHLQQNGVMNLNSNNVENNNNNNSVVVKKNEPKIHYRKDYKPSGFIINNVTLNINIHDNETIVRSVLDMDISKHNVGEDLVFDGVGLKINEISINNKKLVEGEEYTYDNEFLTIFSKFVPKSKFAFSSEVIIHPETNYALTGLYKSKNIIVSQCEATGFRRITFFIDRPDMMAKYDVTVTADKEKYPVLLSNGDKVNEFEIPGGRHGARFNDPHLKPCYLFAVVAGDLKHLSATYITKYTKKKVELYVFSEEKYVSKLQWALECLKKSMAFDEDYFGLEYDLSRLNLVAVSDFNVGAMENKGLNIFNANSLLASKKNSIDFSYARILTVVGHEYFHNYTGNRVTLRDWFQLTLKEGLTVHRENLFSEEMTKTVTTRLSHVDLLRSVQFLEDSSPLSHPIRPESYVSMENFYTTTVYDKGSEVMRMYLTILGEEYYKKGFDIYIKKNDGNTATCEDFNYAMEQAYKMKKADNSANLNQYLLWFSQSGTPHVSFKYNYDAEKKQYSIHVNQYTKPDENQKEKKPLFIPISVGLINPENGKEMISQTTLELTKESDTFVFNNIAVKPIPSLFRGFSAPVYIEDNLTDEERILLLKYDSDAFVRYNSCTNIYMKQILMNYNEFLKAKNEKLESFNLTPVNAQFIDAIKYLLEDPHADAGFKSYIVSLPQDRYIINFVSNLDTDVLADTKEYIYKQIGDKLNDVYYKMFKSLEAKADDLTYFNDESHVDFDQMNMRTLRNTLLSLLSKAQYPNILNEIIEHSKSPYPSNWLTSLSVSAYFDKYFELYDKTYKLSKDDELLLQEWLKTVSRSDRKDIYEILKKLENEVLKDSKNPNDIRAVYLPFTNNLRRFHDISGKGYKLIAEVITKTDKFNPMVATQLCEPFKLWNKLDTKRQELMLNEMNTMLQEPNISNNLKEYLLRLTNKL
Description: P. falciparum M1AAP inhibitors, biochemical, fluorogenic H-Leu-NHMec substrate, 1536-well (AID 1445). The arrangement: species or system Plasmodium falciparum 3D7, 3D7.

Another assay addresses Galanin receptor type 2 (Homo sapiens, UniProt O43603). The assay is described as follows: Dose Response cell-based high-throughput screening assay to identify agonists of galanin receptor 2 (GALR2). [Related pubchem assays: 864 ]. It counts as functional.
The target of assay [7] is T2, Short transient receptor potential channel 4 (Mus musculus, UniProt Q9QUQ5).
T2 sequence (Q9QUQ5 whole entry): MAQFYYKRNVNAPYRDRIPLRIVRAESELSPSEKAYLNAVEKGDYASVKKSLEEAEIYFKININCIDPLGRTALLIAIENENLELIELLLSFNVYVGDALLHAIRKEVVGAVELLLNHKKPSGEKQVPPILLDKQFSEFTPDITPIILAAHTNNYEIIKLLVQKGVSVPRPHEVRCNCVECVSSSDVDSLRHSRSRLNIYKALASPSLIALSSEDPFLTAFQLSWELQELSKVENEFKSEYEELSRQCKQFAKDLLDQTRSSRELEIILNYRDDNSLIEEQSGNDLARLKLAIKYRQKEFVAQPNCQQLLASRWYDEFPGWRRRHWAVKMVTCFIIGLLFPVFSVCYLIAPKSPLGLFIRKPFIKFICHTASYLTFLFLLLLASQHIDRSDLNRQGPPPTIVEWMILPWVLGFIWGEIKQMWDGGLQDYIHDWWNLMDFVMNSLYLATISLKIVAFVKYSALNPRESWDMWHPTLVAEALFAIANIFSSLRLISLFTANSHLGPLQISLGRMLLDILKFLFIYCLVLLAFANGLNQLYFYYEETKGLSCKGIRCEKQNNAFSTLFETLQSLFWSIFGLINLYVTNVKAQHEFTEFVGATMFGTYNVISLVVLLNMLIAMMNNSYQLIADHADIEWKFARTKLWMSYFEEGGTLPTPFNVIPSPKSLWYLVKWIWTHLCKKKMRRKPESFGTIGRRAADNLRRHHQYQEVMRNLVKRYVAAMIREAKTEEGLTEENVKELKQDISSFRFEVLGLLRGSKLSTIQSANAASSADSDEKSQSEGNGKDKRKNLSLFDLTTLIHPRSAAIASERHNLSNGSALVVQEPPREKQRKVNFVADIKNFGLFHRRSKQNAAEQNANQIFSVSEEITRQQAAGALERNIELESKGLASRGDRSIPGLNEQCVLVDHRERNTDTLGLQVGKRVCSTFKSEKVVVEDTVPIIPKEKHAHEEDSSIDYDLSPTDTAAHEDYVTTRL
The assay is described as follows: mouse TRPC4 channel activators, dose response, cell-based, HEK293 TRPC4/mu-opioid, Fluo-4 calcium (AID 434937). It counts as functional.

Assay [8] deals with Delta-type opioid receptor (Homo sapiens, UniProt P41143). Description: Counterscreen for agonists of heterodimerization of the mu 1 (OPRM1) and delta 1 (OPRD1) opioid receptors: Luminescence-based cell-based high throughput dose response assay to identify agonists of OPRD1 homodimerization. [Related pubchem assays (depositor defined):AID504326, AID504355, AID504692, AID504904, AID504905]. It counts as functional.
Sequence of Delta-type opioid receptor (P41143 whole entry): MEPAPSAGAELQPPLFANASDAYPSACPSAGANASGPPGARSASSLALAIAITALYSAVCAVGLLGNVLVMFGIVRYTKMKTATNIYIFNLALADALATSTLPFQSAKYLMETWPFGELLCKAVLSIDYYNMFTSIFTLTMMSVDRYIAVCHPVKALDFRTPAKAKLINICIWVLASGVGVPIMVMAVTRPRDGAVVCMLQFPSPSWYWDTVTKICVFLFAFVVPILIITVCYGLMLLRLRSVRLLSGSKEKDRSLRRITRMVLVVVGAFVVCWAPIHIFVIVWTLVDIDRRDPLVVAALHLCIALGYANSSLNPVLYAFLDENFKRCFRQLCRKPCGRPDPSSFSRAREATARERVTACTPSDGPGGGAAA

A further assay has as its target Mu-type opioid receptor (Homo sapiens, UniProt P35372). Description: Counterscreen for agonists of heterodimerization of the mu 1 (OPRM1) and delta 1 (OPRD1) opioid receptors: Luminescence-based cell-based high throughput dose response assay to identify agonists of OPRM1 homodimerization. It counts as functional.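 Also: U2OS cells expressing OPRM1 and beta-arrestin as split beta-galactosidase partners.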
Assay [9] addresses 5-hydroxytryptamine receptor 5A (Homo sapiens, UniProt P47898). The assay is described as follows: Counterscreen for agonists of OPRM1-OPRD1 heterodimerization: luminescence-based cell-based high throughput dose response assay to identify agonists of 5-hydroxytryptamine (serotonin) 5A receptor (HTR5A). [Related pubchem assays (depositor defined):AID504326, AID504355, AID504692, AID504904, AID504905]. It is filed as functional.

The test system of assay [10] is Vero. Description: cells. It counts as functional. As to conditions: Chlorocebus sabaeus.
The target of assay [11] is T3, DNA repair protein RAD52 homolog (Homo sapiens, UniProt P43351).
T3 sequence (P43351 whole entry): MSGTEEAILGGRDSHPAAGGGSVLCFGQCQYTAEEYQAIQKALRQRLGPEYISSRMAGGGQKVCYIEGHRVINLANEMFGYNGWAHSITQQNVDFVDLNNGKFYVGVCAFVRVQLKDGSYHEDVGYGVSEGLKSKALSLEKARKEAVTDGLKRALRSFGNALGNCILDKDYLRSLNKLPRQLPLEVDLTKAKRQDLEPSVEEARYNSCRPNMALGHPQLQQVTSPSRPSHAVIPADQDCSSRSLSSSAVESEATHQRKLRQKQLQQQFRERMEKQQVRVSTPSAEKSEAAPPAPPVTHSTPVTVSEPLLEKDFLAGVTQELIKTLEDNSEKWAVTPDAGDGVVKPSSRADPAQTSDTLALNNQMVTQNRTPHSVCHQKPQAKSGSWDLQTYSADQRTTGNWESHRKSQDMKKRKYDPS
It counts as functional, biochemical.

Assay [12] addresses Protein-tyrosine kinase 2-beta (Homo sapiens, UniProt Q14289).

Sequence of Protein-tyrosine kinase 2-beta (Q14289 whole entry): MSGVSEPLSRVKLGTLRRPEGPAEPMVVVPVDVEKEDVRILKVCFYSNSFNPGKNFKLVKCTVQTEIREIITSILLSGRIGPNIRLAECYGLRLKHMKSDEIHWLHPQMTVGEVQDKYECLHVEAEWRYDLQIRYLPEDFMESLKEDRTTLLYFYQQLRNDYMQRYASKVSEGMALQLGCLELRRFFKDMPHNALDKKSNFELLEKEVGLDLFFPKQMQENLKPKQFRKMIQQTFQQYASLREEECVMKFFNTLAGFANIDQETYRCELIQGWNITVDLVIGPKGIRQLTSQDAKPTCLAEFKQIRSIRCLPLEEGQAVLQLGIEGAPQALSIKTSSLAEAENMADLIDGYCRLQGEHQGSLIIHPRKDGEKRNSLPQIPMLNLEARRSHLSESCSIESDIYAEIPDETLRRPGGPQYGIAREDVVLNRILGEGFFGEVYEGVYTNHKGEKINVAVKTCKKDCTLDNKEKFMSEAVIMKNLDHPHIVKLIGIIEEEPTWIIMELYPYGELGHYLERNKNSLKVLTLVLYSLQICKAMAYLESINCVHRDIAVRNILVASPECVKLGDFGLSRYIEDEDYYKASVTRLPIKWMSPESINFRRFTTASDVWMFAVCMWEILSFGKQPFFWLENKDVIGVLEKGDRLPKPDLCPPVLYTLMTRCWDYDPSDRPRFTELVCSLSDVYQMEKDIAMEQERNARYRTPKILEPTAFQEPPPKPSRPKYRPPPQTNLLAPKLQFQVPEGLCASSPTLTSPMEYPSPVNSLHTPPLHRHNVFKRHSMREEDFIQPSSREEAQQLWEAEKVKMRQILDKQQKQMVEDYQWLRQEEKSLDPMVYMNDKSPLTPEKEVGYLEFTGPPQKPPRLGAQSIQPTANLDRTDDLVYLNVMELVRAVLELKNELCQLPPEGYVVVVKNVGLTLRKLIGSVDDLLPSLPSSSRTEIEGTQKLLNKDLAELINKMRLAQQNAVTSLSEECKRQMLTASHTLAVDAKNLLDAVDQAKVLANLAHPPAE
Sequence of 5-hydroxytryptamine receptor 5A (P47898 whole entry): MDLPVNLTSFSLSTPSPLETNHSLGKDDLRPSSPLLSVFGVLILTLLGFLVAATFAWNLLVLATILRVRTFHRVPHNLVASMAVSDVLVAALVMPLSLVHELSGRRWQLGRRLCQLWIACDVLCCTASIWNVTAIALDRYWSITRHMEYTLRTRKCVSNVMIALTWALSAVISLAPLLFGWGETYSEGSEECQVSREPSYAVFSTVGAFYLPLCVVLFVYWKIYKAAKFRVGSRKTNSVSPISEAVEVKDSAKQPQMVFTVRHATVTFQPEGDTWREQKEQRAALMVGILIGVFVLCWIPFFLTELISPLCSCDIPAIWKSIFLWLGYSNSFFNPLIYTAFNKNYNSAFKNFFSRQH
Sequence of Galanin receptor type 2 (O43603 whole entry): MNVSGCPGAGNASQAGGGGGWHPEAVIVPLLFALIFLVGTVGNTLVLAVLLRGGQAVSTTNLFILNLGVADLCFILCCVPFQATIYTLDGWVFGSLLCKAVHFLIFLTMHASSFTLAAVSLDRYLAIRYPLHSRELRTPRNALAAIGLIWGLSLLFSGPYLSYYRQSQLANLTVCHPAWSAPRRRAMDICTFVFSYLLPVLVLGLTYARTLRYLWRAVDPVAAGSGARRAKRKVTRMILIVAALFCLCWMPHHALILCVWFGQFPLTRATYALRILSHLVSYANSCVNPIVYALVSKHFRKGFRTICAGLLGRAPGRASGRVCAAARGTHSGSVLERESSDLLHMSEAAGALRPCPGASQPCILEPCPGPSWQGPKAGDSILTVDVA
Sequence of Mu-type opioid receptor (P35372 whole entry): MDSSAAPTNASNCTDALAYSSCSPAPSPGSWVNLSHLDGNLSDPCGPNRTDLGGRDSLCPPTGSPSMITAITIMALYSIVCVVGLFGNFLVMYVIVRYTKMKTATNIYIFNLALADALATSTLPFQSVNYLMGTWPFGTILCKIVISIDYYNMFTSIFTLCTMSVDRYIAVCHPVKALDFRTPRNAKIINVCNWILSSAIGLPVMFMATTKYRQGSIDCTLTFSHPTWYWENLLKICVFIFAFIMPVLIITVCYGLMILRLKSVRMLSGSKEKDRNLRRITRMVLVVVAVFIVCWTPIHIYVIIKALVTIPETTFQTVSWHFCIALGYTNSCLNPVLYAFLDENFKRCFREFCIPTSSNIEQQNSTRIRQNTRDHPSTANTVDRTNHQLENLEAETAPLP

As a reminder, the CC50 is the concentration at which the toxic effect on the cells reaches its halfway point. The EC50 is the concentration at which the effect is half-maximal. The AC50 is the concentration at which the activity in the assay is half-maximal. Consider `CCN(CC)S(=O)(=O)c1cc([N+](=O)[O-])ccc1NNC(=O)Nc1ccc(Cl)c(Cl)c1`, for which the CC50 in the assay with Vero [1] is 14.3 µM (active). Besides, the EC50 in assay [2] is 2.03 µM (active); in [3] it was 8.3 µM (active); in assay [4], > 60 µM (not active); in assay [5], 7.99 µM (active). Also, the AC50 in the assay on HEK293 is 22.9 µM (active); in the assay with INS1 it was 6.79 µM (active); on Paired box protein Pax-8, 8.91 µM (active); in assay [6], 3.73 µM (active).
The term IC50 denotes the concentration that gives 50% inhibition. Take `COc1cc2c3cc1Oc1cc(ccc1O)C[C@@H]1c4c(cc(OC)c(O)c4Oc4ccc(cc4)C[C@H]3N(C)CC2)CCN1C`: at Aminopeptidase N, the IC50 was 15.2 µM (active). The EC50 was > 55.7 µM (not active) on Galanin receptor type 2; 1.33 µM (active) in assay [7]; 44.2 µM (inactive) in [8]; > 92.4 µM (inactive) on Mu-type opioid receptor; 79.2 µM (inactive) in assay [9]. For the same compound, the CC50 in the assay with Vero [10] is 24.6 µM (active). For the same compound, the AC50 in assay [11] is 35.2 µM (active).
On to `Cc1n[nH]c(NC=C2C(=O)CC(C)(C)CC2=O)c1-c1ccccc1`, for which the IC50 in assay [12] is listed as 21 µM (not active).
